Experiments:
[1] = Decomposition of peroxynitrite, comparison with punicalagin; conditions: calculated from rate constants
Method: For initial assessment of possible superiority of the metallocorroles relative to natural antioxidants, we have determined the effect of excess (45-135 μM) punicalagin—the active polyphenolic hydrolysable tannin ingredient of pomegranate juice (Tzulker et al., 2007), on decomposition of peroxynitrite (40 μM).

J-774 macrophages = assay: Cholesterol efflux from J-774 macrophages by serum of treated E^0 mice; conditions: drinking water 0.04 mM (8 mg/Kg/day), 14 weeks
Method: J-774 macrophages were incubated with [^3H]-labeled cholesterol for 1.5 h at 37° C. followed by cell wash in ice-cold PBS (3×) and further incubation in the presence of 15 μL mice serum for 3 h at 37° C. Cellular and medium [^3H]-labels were quantitated and HDL-mediated cholesterol efflux was calculated as the ratio of [^3H]-label in the medium/[^3H]-label in the medium+[^3H]-label in cells.

[2] = tested on: mouse peritoneal macrophages (MPM); assay: Cholesterol efflux from MPM of treated E^0 mice; conditions: drinking water 0.04 mM (8 mg/Kg/day), 14 weeks
Method: Mouse peritoneal macrophages were incubated with [^3H]-labeled cholesterol for 1 h at 37° C. followed by cell wash in ice-cold PBS (3×) and further incubation in the absence or presence of 100 μg of human HDL protein/ml for 3 h at 37° C. Cellular and medium [^3H]-labels were quantitated and HDL-mediated cholesterol efflux was calculated as the ratio of [^3H]-label in the medium/[^3H]-label in the medium+[^3H]-label in cells.

[3] = tested on: mouse peritoneal macrophages (MPM); assay: Cholesterol synthesis by MPM of treated E^0 mice; conditions: drinking water 0.04 mM (8 mg/Kg/day), 14 weeks
Method: Cellular cholesterol biosynthesis was assayed after incubation of macrophages (3×10^6 well^−1) overnight with DMEM containing 2% BSA followed by additional 3 h of incubation at 37° C. with [^3H]-acetate (3.3 μCi/ml). Cellular lipids were extracted with hexane:isopropanol (3:2, v:v), and the upper phase was dried under nitrogen. The lipids were then separated by TLC using an eluent of hexane:ether:acetic acid (130:30:1.5, v:v:v). Unesterified cholesterol spots were visualized by iodine vapor (by using standard for identification) and counted with β-counter.

Q: For O=C1O[C@H]2[C@@H]3OC(=O)c4cc(O)c(O)c(O)c4-c4c(O)c(O)c5oc(=O)c6c(c(O)c(O)c7oc(=O)c4c5c76)-c4c(cc(O)c(O)c4O)C(=O)OC[C@H]3OC(O)[C@@H]2OC(=O)c2cc(O)c(O)c(O)c2-c2c1cc(O)c(O)c2O (mixture of isomers) [punicalagin, reference compound], which “Minimal concentration required for reducing the half lifetime of peroxynitrite by 50%” value [1] is on record?
A: The value was 250 mol %.

Q: With COc1c(F)c(F)c(C2=C3C=CC(=N3)C(c3c(F)c(F)c(OC)c(F)c3F)=c3ccc4[n]3[Fe]3[n]5c(cc(S(=O)(=O)O)c5C=4c4c(F)c(F)c(OC)c(F)c4F)-c4c(S(=O)(=O)O)cc2[n]43)c(F)c1F [2-Fe, 5,10,15-tris(4-methoxy-2,3,5,6-tetrafluorophenyl)-2,17-bis(sulfonic acid)-corrolato iron(III)] as the molecule, how does the “Increase in serum-mediated cholesterol efflux from J-774 macrophages” value (J-774 macrophages) read?
A: The value was 9%.

Q: And the “Increase in cholesterol efflux from the E^0 MPM” value [2]?
A: Its value is 14%.

Q: And the “Increase of cholesterol synthesis by MPMs” value [3]?
A: The value was 8%.
